Measured values reported in US20230190781A1, “ADEMETIONINE AND CANNABIDIOL BASED SOLID PHARMACEUTICAL COMPOSITION AND METHOD FOR PREPARING IT” (priority 2020, published 2023).

How the values were obtained:
[1] = Stability of ademetionine in the compositions; type: physicochemical; settings: +40° C. and 75% RH
Method: The compositions prepared according to the previous examples were placed in dark glass jars in cabinets with temperature and relative humidity control (+40° C. and 75% RH), periodically checking the content of active substances. The stability of the raw material is used as a reference.

[2] = Residual humidity according to Karl-Fisher during processing under vacuum; type: physicochemical; settings: Phase: dosage
Method: It was operated as described in Example 3, but the step of mixing the active substances was carried out under vacuum, as described in Example 11.

ademetionine content, Time (months) 0 ([1]; dark glass jars, 0 months): 51.5
ademetionine content, Time (months) 1 ([1]; dark glass jars, 1 month): 51.0
ademetionine content, Time (months) 2 ([1]; dark glass jars, 2 months): 49.6
ademetionine content, Time (months) 3 ([1]; dark glass jars, 3 months): 48.8
% residual ion ([1]; active substance content after three months as a percentage with respect to time zero): 94.8%
KF: residual humidity [2]: 2.7% w/w
Compound: C[S+](CC[C@H](N)C(=O)[O-])C[C@H]1O[C@@H](n2cnc3c(N)ncnc32)[C@H](O)[C@@H]1O (stereo partly drawn) [Ademetionine, S,S-adenosyl-L-methionine]
